Converted amounts (≈) assume the structure as drawn. Where two headings read alike, the source gives them in different places.
Key:
[1] = test system: Halomonas aquamarina; settings: cited from earlier work
[2] = test system: Vibrio harveyi; settings: cited from earlier work
[3] = test system: Porphyridium purpureum; settings: cited from earlier work
[4] = test system: Halamphora coffeaeformis; settings: cited from earlier work
[5] = test system: Cylindrotheca closterium; settings: cited from earlier work
[6] = test system: Porphyridium purpureum; settings: cited from earlier work; remark: listed apart in the source
[7] = test system: Vibrio proteolyticus; settings: cited from earlier work
[8] = test system: Balanus improvisus cyprid larvae; settings: cited from earlier work
[9] = test system: Vibrio harveyi; settings: cited from earlier work; remark: listed apart in the source
[10] = test system: Halomonas aquamarina; settings: cited from earlier work; remark: listed apart in the source
[11] = test system: Cylindrotheca closterium; settings: cited from earlier work; remark: listed apart in the source
[12] = test system: Pleurochrysis roscoffensis; settings: cited from earlier work
[13] = test system: Vibrio natriegens; settings: cited from earlier work
[14] = test system: Ciona savignyi; design: method as in Moodie et al. [2017b]; settings: ref Moodie et al. [2017b], cited from earlier work
[15] = test system: Vibrio aestuarianus; settings: cited from earlier work
[16] = test system: marine bacteria; settings: panel of marine bacteria; ref Moodie et al. [2017b]; cited from earlier work
[17] = test system: Halamphora coffeaeformis; settings: cited from earlier work; remark: listed apart in the source
[18] = test system: Roseobacter litoralis; settings: cited from earlier work
[19] = test system: Vibrio carchariae; settings: cited from earlier work
[20] = test system: Pseudoalteromonas elyakovii; settings: cited from earlier work
[21] = test system: Vibrio aestuarianus; settings: cited from earlier work; remark: listed apart in the source
[22] = test system: Vibrio carchariae; settings: cited from earlier work; remark: listed apart in the source
[23] = test system: Pleurochrysis roscoffensis; settings: cited from earlier work; remark: listed apart in the source
[24] = test system: Vibrio proteolyticus; settings: cited from earlier work; remark: listed apart in the source
[25] = test system: Shewanella putrefaciens; settings: cited from earlier work
[26] = test system: Balanus improvisus cyprid larvae; experiment: whole plant or invertebrate; assay type: in vivo; settings: Amphibalanus improvisus, 120 h, read-out: IC50 (cyprid settlement inhibition)
Excerpt: Cyprid larvae of B. improvisus were reared in a laboratory cultivating system at Tjärnö Marine Biological Laboratory, University of Gothenburg, Sweden, as previously described by Berntsson et al. ([2000]). Four pure, but non-axenic, marine microalgae (obtained from Algobank, Caen, France) and 10 marine bacterial strains were used (Table 1) as representative microfoulers. These strains represent fouling species encountered in both estuarine and marine environments (Moodie et al. [2017b]). The bacteria were grown at 26 °C in a marine medium, composed of 0.5% peptone (neutralized bacteriological peptone, Oxoid Ltd.) in filtered (Whatman 1001–270, pore size 11 μm) natural seawater. Microalgae were grown and maintained at 22 °C in F/2 medium.
Stock solutions of compounds in DMSO were serially diluted in untreated polystyrene Petri dishes containing 10 mL of filtered (0.2 μm) seawater, affording final concentrations ranging from 0.1 to 10 μg/mL. Freshly molted balanide cyprids (18–22) were added to each Petri dish and incubated at ambient temperature (20–25 °C) for 5 days. Cyprid metamorphosis was assessed using a dissecting microscope where the numbers of juvenile settled, free-swimming, and dead cyprids were noted. Initial compound screening was conducted at 5 μg/mL, and full IC50 determination was performed only on compounds displaying > 50% inhibition at that concentration. The IC50 was defined as the concentration preventing 50% of the cyprid settlement on the Petri dish surface. Each concentration was replicated four times (n = 4), and dishes containing 0.1% of DMSO were used as negative controls. The commercial AF agent Sea-nine™ was employed as a positive control.

**Q.** With COc1ccc(CCc2ccccc2)cc1OC [Compound 2] as the compound, how does the “MIC against the adhesion of marine bacteria, H.a.” value ([1]; ref Moodie et al. ([2017b])) read?
**A.** Its value is “– (Not active at > 10 μg/mL)”.

**Q.** And the “MIC against the adhesion of marine bacteria, V.h.” value ([2]; ref Moodie et al. ([2017b]))?
**A.** Its value is “– (Not active at > 10 μg/mL)”.

**Q.** And the “MIC against the adhesion (A) of microalgae, P. purpureum” value ([3]; ref Moodie et al. ([2017b]))?
**A.** Its value is 10 µg/mL.

**Q.** And the “MIC against the adhesion (A) of microalgae, H. coffeaformis” value ([4]; ref Moodie et al. ([2017b]))?
**A.** The value was 1 µg/mL.

**Q.** And the “MIC against the growth (G) of microalgae, C. closterium” value ([5]; ref Moodie et al. ([2017b]))?
**A.** The value was 0.01 µg/mL.

**Q.** What about the “MIC against the growth (G) of microalgae, P. purpureum” value ([6]; ref Moodie et al. ([2017b])) of the same compound?
**A.** Its value is 1 µg/mL.

**Q.** What about the “MIC against the adhesion of marine bacteria, V.p.” value ([7]; ref Moodie et al. ([2017b])) of the same compound?
**A.** The value was “– (Not active at > 10 μg/mL)”.

**Q.** And the “IC50 (cyprid settlement inhibition)” value ([8]; B. improvisus, ref Moodie et al. ([2017b]))?
**A.** Its value is 0.75 µg/mL (≈ 3.1 µM).

**Q.** And the “Toxicity (%) (dead cyprids)” value ([8]; B. improvisus, reported at 5 μg/mL, ref Moodie et al. ([2017b]))?
**A.** Its value is 5.3%.

**Q.** And the “toxicity, in words” value ([8]; Balanus improvisus, ref Moodie et al. [2017b])?
**A.** The value was “low toxicity”.

**Q.** What about the “MIC against the growth of marine bacteria, V.h.” value ([9]; ref Moodie et al. ([2017b])) of the same compound?
**A.** The value was “– (Not active at > 10 μg/mL)”.

**Q.** What about the “MIC against the growth of marine bacteria, H.a.” value ([10]; ref Moodie et al. ([2017b])) of the same compound?
**A.** The value was 0.01 µg/mL.

**Q.** And the “MIC against the adhesion (A) of microalgae, C. closterium” value ([11]; ref Moodie et al. ([2017b]))?
**A.** Its value is 0.1 µg/mL.

**Q.** And the “MIC against the growth (G) of microalgae, P. roscoffensis” value ([12]; ref Moodie et al. ([2017b]))?
**A.** The value was 0.01 µg/mL.

**Q.** What about the “MIC against the growth of marine bacteria, V.n.” value ([13]; ref Moodie et al. ([2017b])) of the same compound?
**A.** The value was “– (Not active at > 10 μg/mL)”.

**Q.** And the “inhibition of settlement, in words” value ([14]; even after 5 days)?
**A.** Its value is “effectively inhibited”.

**Q.** And the “IC50 (settlement inhibition)” value [14]?
**A.** Its value is 1.1 µg/mL (≈ 4.54 µM).

**Q.** What about the “toxicity, in words” value [14] of the same compound?
**A.** Its value is “low toxicity”.

**Q.** What about the “MIC against the adhesion of marine bacteria, V.a.” value ([15]; ref Moodie et al. ([2017b])) of the same compound?
**A.** Its value is “– (Not active at > 10 μg/mL)”.

**Q.** What about the “Activity against bacterial adhesion” value [16] of the same compound?
**A.** The value was “inactive”.

**Q.** What about the “MIC against the growth (G) of microalgae, H. coffeaformis” value ([17]; ref Moodie et al. ([2017b])) of the same compound?
**A.** Its value is 0.01 µg/mL.

**Q.** What about the “MIC against the growth of marine bacteria, R.l.” value ([18]; ref Moodie et al. ([2017b])) of the same compound?
**A.** The value was 10 µg/mL.

**Q.** What about the “MIC against the growth of marine bacteria, V.c.” value ([19]; ref Moodie et al. ([2017b])) of the same compound?
**A.** Its value is “– (Not active at > 10 μg/mL)”.

**Q.** And the “MIC against the growth of marine bacteria, P.e.” value ([20]; ref Moodie et al. ([2017b]))?
**A.** The value was 10 µg/mL.

**Q.** And the “MIC against the growth of marine bacteria, V.a.” value ([21]; ref Moodie et al. ([2017b]))?
**A.** Its value is 10 µg/mL.

**Q.** And the “MIC against the adhesion of marine bacteria, V.c.” value ([22]; ref Moodie et al. ([2017b]))?
**A.** The value was “– (Not active at > 10 μg/mL)”.

**Q.** And the “MIC against the adhesion (A) of microalgae, P. roscoffensis” value ([23]; ref Moodie et al. ([2017b]))?
**A.** The value was 1 µg/mL.

**Q.** What about the “MIC against the growth of marine bacteria, V.p.” value ([24]; ref Moodie et al. ([2017b])) of the same compound?
**A.** The value was “– (Not active at > 10 μg/mL)”.

**Q.** And the “MIC against the growth of marine bacteria, S.p.” value ([25]; ref Moodie et al. ([2017b]))?
**A.** The value was 0.1 µg/mL.

**Q.** Which “MIC against the adhesion of marine bacteria, H.a.” value ([1]; ref Trepos et al. ([2015])) does the source give for CCCCCCCCn1sc(Cl)c(Cl)c1=O [Sea-nine™] here?
**A.** Its value is under 0.01 µg/mL.

**Q.** And the “MIC against the adhesion of marine bacteria, V.h.” value ([2]; ref Trepos et al. ([2015]))?
**A.** Its value is 1 µg/mL.

**Q.** What about the “MIC against the adhesion (A) of microalgae, P. purpureum” value ([3]; ref Trepos et al. ([2015])) of the same compound?
**A.** Its value is under 0.01 µg/mL.

**Q.** And the “MIC against the adhesion (A) of microalgae, H. coffeaformis” value ([4]; ref Trepos et al. ([2015]))?
**A.** Its value is under 0.01 µg/mL.

**Q.** What about the “MIC against the growth (G) of microalgae, C. closterium” value ([5]; ref Trepos et al. ([2015])) of the same compound?
**A.** The value was under 0.01 µg/mL.

**Q.** And the IC50 [26]?
**A.** Its IC50 is 0.25 µg/mL (≈ 0.886 µM).

**Q.** And the “MIC against the growth (G) of microalgae, P. purpureum” value ([6]; ref Trepos et al. ([2015]))?
**A.** Its value is under 0.01 µg/mL.

**Q.** And the “MIC against the adhesion of marine bacteria, V.p.” value ([7]; ref Trepos et al. ([2015]))?
**A.** The value was 0.01 µg/mL.

**Q.** And the “MIC against the growth of marine bacteria, V.h.” value ([9]; ref Trepos et al. ([2015]))?
**A.** Its value is 1 µg/mL.

**Q.** What about the “MIC against the growth of marine bacteria, H.a.” value ([10]; ref Trepos et al. ([2015])) of the same compound?
**A.** Its value is 0.1 µg/mL.

**Q.** What about the “MIC against the adhesion (A) of microalgae, C. closterium” value ([11]; ref Trepos et al. ([2015])) of the same compound?
**A.** Its value is under 0.01 µg/mL.

**Q.** And the “MIC against the growth (G) of microalgae, P. roscoffensis” value ([12]; ref Trepos et al. ([2015]))?
**A.** Its value is under 0.01 µg/mL.

**Q.** And the “MIC against the growth of marine bacteria, V.n.” value ([13]; ref Trepos et al. ([2015]))?
**A.** The value was 1 µg/mL.

**Q.** And the “MIC against the adhesion of marine bacteria, V.a.” value ([15]; ref Trepos et al. ([2015]))?
**A.** Its value is 1 µg/mL.

**Q.** What about the “MIC against the growth (G) of microalgae, H. coffeaformis” value ([17]; ref Trepos et al. ([2015])) of the same compound?
**A.** Its value is under 0.01 µg/mL.

**Q.** What about the “MIC against the growth of marine bacteria, R.l.” value ([18]; ref Trepos et al. ([2015])) of the same compound?
**A.** The value was 1 µg/mL.

**Q.** What about the “MIC against the growth of marine bacteria, V.c.” value ([19]; ref Trepos et al. ([2015])) of the same compound?
**A.** Its value is under 0.01 µg/mL.

**Q.** And the “MIC against the growth of marine bacteria, P.e.” value ([20]; ref Trepos et al. ([2015]))?
**A.** The value was 0.1 µg/mL.

**Q.** And the “MIC against the growth of marine bacteria, V.a.” value ([21]; ref Trepos et al. ([2015]))?
**A.** Its value is under 0.01 µg/mL.

**Q.** What about the “MIC against the adhesion of marine bacteria, V.c.” value ([22]; ref Trepos et al. ([2015])) of the same compound?
**A.** Its value is under 0.01 µg/mL.

**Q.** What about the “MIC against the adhesion (A) of microalgae, P. roscoffensis” value ([23]; ref Trepos et al. ([2015])) of the same compound?
**A.** The value was under 0.01 µg/mL.

**Q.** And the “MIC against the growth of marine bacteria, V.p.” value ([24]; ref Trepos et al. ([2015]))?
**A.** The value was 0.01 µg/mL.

**Q.** And the “MIC against the growth of marine bacteria, S.p.” value ([25]; ref Trepos et al. ([2015]))?
**A.** The value was 1 µg/mL.

Source: PMC5889410, “Design and Biological Evaluation of Antifouling Dihydrostilbene Oxime Hybrids” (Marine Biotechnology (New York, N.y.), 2018)
